This note sets out measurements from paper PMC3141555, “Neuroprotective effect of a new DJ-1-binding compound against neurodegeneration in Parkinson's disease and stroke model rats” (2011).

The target in experiment [1] is T1, DJ-1 (Homo sapiens, UniProt Q99497).
T1 construct: gene PARK7; recombinant DJ-1
T1 sequence (Q99497 2-189): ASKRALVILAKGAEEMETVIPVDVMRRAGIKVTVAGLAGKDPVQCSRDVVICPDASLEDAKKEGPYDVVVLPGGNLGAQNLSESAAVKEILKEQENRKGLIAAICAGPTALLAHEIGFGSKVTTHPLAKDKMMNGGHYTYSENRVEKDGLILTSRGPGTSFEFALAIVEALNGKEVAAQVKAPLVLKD
As to the kind of experiment: quartz crystal microbalance (compound fixed on sensor chip, recombinant DJ-1 applied). The class given is binding.

Experiment [2] concerns the target T2, DJ-1 (human (endogenous in SH-SY5Y)), Q99497.
T2 chain: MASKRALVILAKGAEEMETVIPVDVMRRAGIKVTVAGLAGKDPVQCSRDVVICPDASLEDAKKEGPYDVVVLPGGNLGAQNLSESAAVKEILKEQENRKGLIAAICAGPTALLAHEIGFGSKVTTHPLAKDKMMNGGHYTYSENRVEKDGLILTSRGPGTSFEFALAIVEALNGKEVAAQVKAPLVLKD
As to the kind of experiment: cross-linking; SH-SY5Y cells incubated with 1 uM compound-23 or compound-B for 20 hours, treated with various amounts of H2O2 for 3 hours, then 0.5 mM DSS (or DMSO) for 30 min; extracts analysed by Western blotting with an anti-DJ-1 antibody. The note with it: remark: other sources report otherwise. In general terms: In western blotting, separated proteins are transferred to a membrane and probed.

For orientation: Kd means the equilibrium constant for the complex coming apart. As a reminder, the stoichiometry N is the number of molecules, sites or subunits per partner or assembly.

With `COc1cc(C(=O)Nc2ccc(-c3cn4cccc(C)c4n3)cc2)cc(OC)c1OC` [compound-23, N-[4-(8-methyl(4-hydroimidazo[1,2-a]pyridin-2-yl))phenyl](3,4,5-trimethoxyphenyl)carboxamide], the Kd in experiment [1] stood at 103 nM.

B1: DJ-1, Q99497 1-189 (natural protein)
chain: MASKRALVILAKGAEEMETVIPVDVMRRAGIKVTVAGLAGKDPVQCSRDVVICPDASLEDAKKEGPYDVVVLPGGNLGAQNLSESAAVKEILKEQENRKGLIAAICAGPTALLAHEIGFGSKVTTHPLAKDKMMNGGHYTYSENRVEKDGLILTSRGPGTSFEFALAIVEALNGKEVAAQVKAPLVLKD
Turning to B1, in experiment [2], the stoichiometry N was determined as 2.
